Target: T1, human GluR4B receptor (Homo sapiens, UniProt P48058)
T1 construct: expressed in transfected cells
Assay: Potentiation of agonist-induced excitability of human GluR4B receptor expressed in HEK 293 cells
Type: cell-based
Description: The ability of compounds of formula I to potentiate glutamate receptor-mediated response may be determined using fluorescent calcium indicator dyes (Molecular Probes, Eugene, Oreg., Fluo-3) and by measuring glutamate-evoked efflux of calcium into GluR4 transfected HEK293 cells, as described in more detail below.
In one test, 96 well plates containing confluent monolayers of HEK cells stably expressing human GluR4B (obtained as described in European Patent Application Publication Number EP-A1-583917) are prepared. The tissue culture medium in the wells is then discarded, and the wells are each washed once with 200 μl of buffer (glucose, 10 mM, sodium chloride, 138 mM, magnesium chloride, 1 mM, potassium chloride, 5 mM, calcium chloride, 5 mM, N-[2-hydroxyethyl]-piperazine-N-[2-ethanesulfonic acid], 10 mM, to pH 7.1 to 7.3). […]
Each test is then performed as follows. […] A second fluorescent reading is taken after 5 minutes incubation. 15 μl of 400 μM glutamate solution is then added to each well (final glutamate concentration 100 μM), and a third reading is taken. The activities of test compounds and cyclothiazide solutions are determined by subtracting the second from the third reading (fluorescence due to addition of glutamate in the presence or absence of test compound or cyclothiazide) and are expressed relative to enhance fluorescence produced by 100 μM cyclothiazide.

T1 sequence (P48058 21-902): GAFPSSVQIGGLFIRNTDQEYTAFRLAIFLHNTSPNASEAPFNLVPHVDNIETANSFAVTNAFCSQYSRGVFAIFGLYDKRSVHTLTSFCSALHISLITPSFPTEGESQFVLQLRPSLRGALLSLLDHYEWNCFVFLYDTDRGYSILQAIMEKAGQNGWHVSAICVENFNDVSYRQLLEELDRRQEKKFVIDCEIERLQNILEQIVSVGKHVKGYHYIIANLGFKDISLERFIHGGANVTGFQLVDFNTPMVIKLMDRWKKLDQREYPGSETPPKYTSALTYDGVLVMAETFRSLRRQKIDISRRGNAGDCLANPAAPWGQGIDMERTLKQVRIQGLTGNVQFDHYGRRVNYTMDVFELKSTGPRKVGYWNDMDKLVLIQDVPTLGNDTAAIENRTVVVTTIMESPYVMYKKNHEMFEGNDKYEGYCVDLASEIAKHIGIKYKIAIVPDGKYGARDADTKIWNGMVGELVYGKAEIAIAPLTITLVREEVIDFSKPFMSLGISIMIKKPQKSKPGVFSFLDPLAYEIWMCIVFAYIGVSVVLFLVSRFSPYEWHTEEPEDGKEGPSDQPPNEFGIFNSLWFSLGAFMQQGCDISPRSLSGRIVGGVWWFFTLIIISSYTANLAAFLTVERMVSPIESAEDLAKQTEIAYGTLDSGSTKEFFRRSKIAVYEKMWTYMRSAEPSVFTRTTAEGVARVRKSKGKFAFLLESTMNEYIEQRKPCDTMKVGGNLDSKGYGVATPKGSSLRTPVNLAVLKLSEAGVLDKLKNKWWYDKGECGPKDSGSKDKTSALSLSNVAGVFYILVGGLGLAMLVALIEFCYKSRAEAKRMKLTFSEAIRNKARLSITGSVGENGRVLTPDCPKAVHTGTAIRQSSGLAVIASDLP

**Q.** With `NS(=O)(=O)c1cc2c(cc1Cl)NC(C1CC3C=CC1C3)NS2(=O)=O` (stereo not shown) [cyclothiazide] as the compound, how does the “potentiation of agonist-induced excitability” value read?
**A.** potentiate agonist-induced excitability

Source: patent US6355655B1, “Heterocyclic sulphonamide derivatives” (Eli Lilly and Company, priority 1998, dated 2002)
